Measured values published in ChEMBL document CHEMBL5154780, “Target Fishing Reveals a Novel Mechanism of 1,2,4-Oxadiazole Derivatives Targeting Rpn6, a Subunit of 26S Proteasome” (J Med Chem, 2022).
The source made the active and inactive calls. No cut-off for these calls is given here. Where a SMILES comes first, the peptide text is derived from it. The star is where a group is joined. Cbz = O=C(OCc1ccccc1)*

What was measured:
[1] = test system: THP-1; assay: Antiinflammatory activity in PMA-differentiated and LPS-stimulated human THP-1 cell model assessed as inhibition of NLRP3 inflammasome-driven IL-1beta production at 30 uM incubated for 24 hrs followed by LPS stimulation for 3 hrs and ATP addition for 1 hr by ELISA; format: functional; parameters: scale not given: the % may be the effect or the level left
[2] = test system: HepG2-ARE-C8; assay: Activation of Nrf2-ARE pathway in human HepG2-ARE-C8 cells assessed as fold upregulation of ARE-inducing luciferase activity at 20 uM measured after 24 hrs by luciferase reporter gene assay; format: cell-based; conditions: filed as activator
[3] = Cytotoxicity against human THP-1 cells assessed as reduction in cell viability measured after 24 hrs by MTT assay; format: toxicity, cell-based
[4] = test system: THP-1; assay: Antiinflammatory activity in PMA-differentiated and LPS-stimulated human THP-1 cell model assessed as inhibition of NLRP3 inflammasome-driven IL-1beta production at 15 uM incubated for 24 hrs followed by LPS stimulation for 3 hrs and ATP addition for 1 hr by ELISA; format: functional; parameters: scale not given: the % may be the effect or the level left
[5] = test system: HepG2-ARE-C8; assay: Activation of Nrf2-ARE pathway in human HepG2-ARE-C8 cells assessed as fold upregulation of ARE-inducing luciferase activity at 160 uM measured after 24 hrs by luciferase reporter gene assay; format: cell-based; conditions: filed as activator
[6] = test system: HepG2-ARE-C8; assay: Activation of Nrf2-ARE pathway in human HepG2-ARE-C8 cells assessed as fold upregulation of ARE-inducing luciferase activity at 10 uM measured after 24 hrs by luciferase reporter gene assay; format: cell-based; conditions: filed as activator
[7] = test system: HepG2-ARE-C8; assay: Activation of Nrf2-ARE pathway in human HepG2-ARE-C8 cells assessed as fold upregulation of ARE-inducing luciferase activity at 80 uM measured after 24 hrs by luciferase reporter gene assay; format: cell-based; conditions: filed as activator
[8] = biological target: 26S proteasome non-ATPase regulatory subunit 11 (Rattus norvegicus) (UniProt F1LMZ8); assay: Binding affinity to recombinant Rpn6 in rat PC-12 cells at 60 uM measured after 12 hrs by DAPI staining based fluorescence microscope assay; format: cell-based; conditions: filed as activator
Sequence of 26S proteasome non-ATPase regulatory subunit 11 (Rattus norvegicus) (F1LMZ8 whole entry): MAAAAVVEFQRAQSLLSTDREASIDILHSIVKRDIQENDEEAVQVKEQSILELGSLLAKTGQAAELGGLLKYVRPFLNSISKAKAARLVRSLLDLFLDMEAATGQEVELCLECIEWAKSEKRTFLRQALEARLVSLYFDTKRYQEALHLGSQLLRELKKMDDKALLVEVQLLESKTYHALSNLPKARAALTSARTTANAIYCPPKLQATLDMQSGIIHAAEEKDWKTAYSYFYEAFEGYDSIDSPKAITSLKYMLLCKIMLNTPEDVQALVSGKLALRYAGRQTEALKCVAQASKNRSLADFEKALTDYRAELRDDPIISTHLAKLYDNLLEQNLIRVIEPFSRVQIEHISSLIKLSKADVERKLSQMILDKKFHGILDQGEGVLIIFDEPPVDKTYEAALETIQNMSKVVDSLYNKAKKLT

[9] = test system: THP-1; assay: Antiinflammatory activity in PMA-differentiated and LPS-stimulated human THP-1 cell model assessed as inhibition of NLRP3 inflammasome-driven IL-1beta production at 45 uM incubated for 24 hrs followed by LPS stimulation for 3 hrs and ATP addition for 1 hr by ELISA; format: functional; parameters: scale not given: the % may be the effect or the level left
[10] = test system: HepG2-ARE-C8; assay: Activation of Nrf2-ARE pathway in human HepG2-ARE-C8 cells assessed as fold upregulation of ARE-inducing luciferase activity at 40 uM measured after 24 hrs by luciferase reporter gene assay; format: cell-based; conditions: filed as activator
[11] = test system: PC-12; assay: Induction of cell membrane permeability in rat PC-12 cells at 60 uM measured after 10 hrs by fluorescence microscopic analysis; format: cell-based
[12] = biological target: T1, Nuclear factor erythroid 2-related factor 2 (Rattus norvegicus) (UniProt O54968); assay: Inhibition of Nrf2 degradation in rat PC-12 cells assessed as accumulation of ubiquitinated Nrf2 at 40 uM incubated for 6 hrs in presence of proteasome inhibitor MG132 by Western blot analysis; format: cell-based
T1 sequence (whole entry): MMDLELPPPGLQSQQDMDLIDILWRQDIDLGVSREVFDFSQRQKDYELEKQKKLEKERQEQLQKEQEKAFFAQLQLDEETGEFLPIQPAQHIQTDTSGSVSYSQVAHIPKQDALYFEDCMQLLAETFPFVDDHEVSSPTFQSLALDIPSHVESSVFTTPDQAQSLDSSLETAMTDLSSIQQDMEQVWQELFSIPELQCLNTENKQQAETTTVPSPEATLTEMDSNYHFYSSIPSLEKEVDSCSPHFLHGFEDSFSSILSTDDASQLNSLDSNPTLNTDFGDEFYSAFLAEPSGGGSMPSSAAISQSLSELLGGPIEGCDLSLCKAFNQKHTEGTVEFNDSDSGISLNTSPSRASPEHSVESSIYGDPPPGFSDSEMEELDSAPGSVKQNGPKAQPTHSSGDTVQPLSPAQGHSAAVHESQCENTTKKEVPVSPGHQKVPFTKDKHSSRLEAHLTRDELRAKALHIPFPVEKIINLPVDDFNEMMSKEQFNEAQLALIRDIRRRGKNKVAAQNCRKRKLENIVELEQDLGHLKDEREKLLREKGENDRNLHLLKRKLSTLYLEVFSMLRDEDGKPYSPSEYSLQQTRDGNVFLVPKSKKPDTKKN

[13] = biological target: T1, Nuclear factor erythroid 2-related factor 2 (Rattus norvegicus); assay: Inhibition of Nrf2 degradation in rat PC-12 cells assessed as accumulation of ubiquitinated Nrf2 at 40 uM incubated for 6 hrs by Western blot analysis; format: cell-based
[14] = biological target: T1, Nuclear factor erythroid 2-related factor 2 (Rattus norvegicus); assay: Inhibition of Nrf2 degradation in rat PC-12 cells assessed as increase in ubiquitinated Nrf2 at 40 uM incubated for 6 hrs by co-immunoprecipitation based Western blot analysis; format: cell-based
[15] = biological target: 26S proteasome non-ATPase regulatory subunit 11 (Homo sapiens, UniProt O00231); assay: Binding affinity to biotinylated recombinant Rpn6 (unknown origin) assessed as dissociation constant by biolayer interferometry analysis
Sequence of 26S proteasome non-ATPase regulatory subunit 11 (O00231 whole entry): as the sequence (F1LMZ8 whole entry) above

[16] = biological target: T1, Nuclear factor erythroid 2-related factor 2 (Rattus norvegicus); assay: Inhibition of Nrf2 degradation in rat PC-12 cells assessed as increase in ubiquitinated Nrf2 at 40 uM incubated for 6 hrs in presence of proteasome inhibitor MG132 by co-immunoprecipitation based Western blot analysis; format: cell-based
[17] = biological target: T1, Nuclear factor erythroid 2-related factor 2 (Rattus norvegicus); assay: Inhibition of Nrf2 degradation in rat PC-12 cells assessed as accumulation of ubiquitinated Nrf2 at 10 uM incubated for 6 hrs by Western blot analysis; format: cell-based
[18] = biological target: T1, Nuclear factor erythroid 2-related factor 2 (Rattus norvegicus); assay: Activation of Nrf2 in rat PC-12 cells assessed as upregulation of Nrf2 protein expression measured after 24 hrs by Western blot analysis; format: cell-based; conditions: filed as activator, dose 10-40 µM, DDE = dose-dependent effect
[19] = biological target: T1, Nuclear factor erythroid 2-related factor 2 (Rattus norvegicus); assay: Activation of Nrf2 in rat PC-12 cells assessed as upregulation of Nrf2 in nucleus at 20 uM measured after 4 hrs by western blot analysis; format: cell-based; conditions: filed as activator
[20] = biological target: T1, Nuclear factor erythroid 2-related factor 2 (Rattus norvegicus); assay: Activation of Nrf2 in rat PC-12 cells assessed as reduction of Nrf2 in cytoplasm at 20 uM measured after 4 hrs by western blot analysis; format: cell-based; conditions: filed as activator
[21] = biological target: T1, Nuclear factor erythroid 2-related factor 2 (Rattus norvegicus); assay: Activation of Nrf2 in rat PC-12 cells assessed as upregulation of HO-1 protein expression measured after 24 hrs by Western blot analysis; format: cell-based; conditions: filed as activator, dose 10-40 µM, DDE = dose-dependent effect
[22] = biological target: T1, Nuclear factor erythroid 2-related factor 2 (Rattus norvegicus); assay: Activation of Nrf2 in rat PC-12 cells assessed as upregulation of NQO1 protein expression measured after 24 hrs by Western blot analysis; format: cell-based; conditions: filed as activator, dose 10-40 µM, DDE = dose-dependent effect
[23] = test system: PC-12; assay: Cytoprotective activity against H2O2-induced oxidative damage in rat PC-12 assessed as increase in cell viability preincubated for 24 hrs followed by H2O2 stimulation for 3 hrs by MTT assay; format: functional, cell-based; conditions: dose 5-80 µM, DDE = dose-dependent effect
[24] = biological target: 26S proteasome non-ATPase regulatory subunit 11 (Rattus norvegicus) (UniProt F1LMZ8); assay: Binding affinity to biotinylated recombinant Rpn6 in rat PC-12 cells at 100 to 200 uM incubation for overnight by pull-down assay based SDS-PAGE analysis; format: cell-based; conditions: filed as activator, dose 100-200 µM, DDE = dose-dependent effect

SMILES	Activity [1] [%]	fold change (FC) [2]	IC50 at 24 h [3] [µM]	Activity [4] [%]	fold change (FC) [5]	fold change (FC) [6]	fold change (FC) [7]	Activity [9] [%]	fold change (FC) [10]	other results
Cc1ccc(-c2noc(-c3ccc(F)cc3NC(=O)CCCCCNC(=S)Nc3ccc4c(c3)C(=O)OC43c4ccc(O)cc4Oc4cc(O)ccc43)n2)cn1	77.63	2.28	> 100	67.9	6.42	2.62	2.71	89.34	2.3	Activity [8]: Active; Activity [11]: Active
Fc1ccc(-c2nc(-c3ccc4nc[nH]c4c3)no2)cc1	98.39	4.19	> 100	87.24	31.5	4.53	19.3	102.6	7.5	Activity [12]: Active; Activity [13]: Active; Activity [14]: Active; Kd [15]: 8.53 µM; Activity [16]: Active
CCNC(=O)CCCCCNC(C)=O	3.52	1.17	> 100	-2.73	1.22	1.17	1.22	2.89	1.41	–
CC(C)(C)c1cc(O)ccc1O [E319]	58.58	3.13	> 100	50.88	15.9	2.94	12	98.29	2.98	–
CC(C)C[C@@H](C=O)NC(=O)[C@H](CC(C)C)NC(=O)[C@H](CC(C)C)NC(=O)OCc1ccccc1 (Cbz-Leu-Leu-Leu-aldehyde)	–	–	–	–	–	–	–	–	–	Activity [17]: Active
Cc1ccc(-c2noc(-c3ccc(F)cc3)n2)cn1	53.91	2.75	> 100	49.86	29.6	2.08	31.7	85.46	7.14	Activity [18]: Dde; Activity [19]: Active; Activity [20]: Active; Activity [21]: Dde; Activity [22]: Dde
Cc1ccc(-c2noc(-c3ccc(F)cc3NC(=O)CCCCCNC(=O)CCCC[C@@H]3SC[C@@H]4NC(=O)N[C@@H]43)n2)cn1	64.61	5.59	> 100	33.81	11.8	4.96	7.1	97.72	6.69	Activity [23]: Dde; Activity [18]: Dde; Activity [19]: Active; Activity [20]: Active; Activity [24]: Dde; Activity [21]: Dde; Activity [22]: Dde; Kd [15]: 1.38 µM
O=C(O)CCCC[C@@H]1SC[C@@H]2NC(=O)N[C@@H]21	–	1.12	–	–	1.55	1.55	1.45	–	1.18	–
